{"source": "patent US20240335429A1", "about": "“MOLECULAR GLUE AND SALL4 DEGRADER” (National University of Singapore, priority 2021, published 2024)", "target": "T1, SALL4B (Homo sapiens, UniProt Q9UJQ4)", "T1 construct": "endogenous in cells; host or cells: SNU-398 HCC cells", "T1 sequence (Q9UJQ4 1-616 isoform Q9UJQ4-2)": "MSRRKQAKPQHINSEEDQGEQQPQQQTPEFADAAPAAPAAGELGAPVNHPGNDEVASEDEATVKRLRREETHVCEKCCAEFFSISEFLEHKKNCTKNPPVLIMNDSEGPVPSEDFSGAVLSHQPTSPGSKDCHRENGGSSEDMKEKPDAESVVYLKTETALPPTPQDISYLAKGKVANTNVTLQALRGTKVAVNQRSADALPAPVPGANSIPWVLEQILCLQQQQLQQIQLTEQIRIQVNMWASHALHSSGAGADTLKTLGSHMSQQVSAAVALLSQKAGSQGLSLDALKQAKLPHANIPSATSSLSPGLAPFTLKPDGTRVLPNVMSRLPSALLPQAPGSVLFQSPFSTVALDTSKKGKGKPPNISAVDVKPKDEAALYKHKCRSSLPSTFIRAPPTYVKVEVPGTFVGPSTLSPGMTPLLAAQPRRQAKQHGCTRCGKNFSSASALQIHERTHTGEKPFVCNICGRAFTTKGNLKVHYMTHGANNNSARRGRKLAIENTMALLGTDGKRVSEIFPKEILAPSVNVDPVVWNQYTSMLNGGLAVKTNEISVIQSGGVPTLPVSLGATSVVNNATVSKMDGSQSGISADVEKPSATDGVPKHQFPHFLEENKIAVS", "assay": "Immunoblot of endogenous SALL4B in SNU-398 HCC cells", "type": "cell-based", "method": "RIPA buffer containing freshly added protease inhibitors (2 mM PMSF) and protease inhibitor cocktail was used for cell lysis. The lysed cells were incubated for 10 min on ice and subsequently centrifuged at 4° C. for 10 min at 14,000 rpm. The protein concentrations of cell lysates were assessed using Bradford Assay as per manufacturer's instructions. The samples were denatured using 4× Sample buffer at 95° C. for 5 min. The samples were size resolved using polyacrylamide gel (8%) and Mini-PROTEAN Tetra Cell module. The size-resolved proteins were transferred onto PVDF via electroblotting using Mini Trans-Blot® module. The membrane was blocked using 5% BSA in TBST. The membrane was incubated with appropriate primary antibody (overnight) and secondary antibody (1 h). Immobilon Crescendo Western HRP substrate was used for signal development and images were acquired using darkroom development techniques.\nA head-to-head comparison between the newly discovered SALL4 degrader QE-18-WG07 and IMiDs (Pomalidomide and Thalidomide) was performed. To assess the differential isoform degradation and biological consequences induced by QE-18-WG07 and IMiDs in cancer cells, the inventors employed the newly developed SALL4 isoform-specific cellular luciferase reporter system in Example 1 (FIG. 1A), and human HCC cell lines (SNU-398 and SNU-182), and NSCLC cell line H661 that have a high SALL4 level endogenously. The inventors treated H1299 cells overexpressing SALL4B_Nluc and the HCC (SNU-398, SNU-182) and NSCLC cells (H661) with increasing concentrations of QE-18-WG07 and IMiDs, and assayed the SALL4B_Nluc, as well as the endogenous SALL4A and B levels by immunoblots described in Example 4.\n26S proteasome complex and neddylation was inhibited by cotreating MG132 at 1 and 3 μM and MLN4924 at 10 and 15 μM for 18 h, 20 h, 24 h or 48 h with desired concentrations of QE-18-WG07 in SNU-398, H661 and SNU-182 cells. After 18 h or 24 h of treatment, cells were then lysed and subjected to further protein extraction and immunoblotting by following the protocol in Example 4. For caspase glo assay, 20 h of cotreatment was performed by following the protocol in Example 5. For viability assay, 48 h of cotreatment was carried out by following the protocol in Example 5.\nFor lentiviral transduction, SNU-398 cells were spun with lentiviral particles containing the aforementioned vectors in RPMI (plus 10% FBS, 8 μg/mL polybrene) at 800 g for 60 minutes at room temperature. 96 h post-infection, cells were seeded in 6-well or 384-well plates and incubated overnight at 37° C., 5% CO2. Cells were then treated with DMSO or QE-18-WG07 at desired concentrations (0.5% final DMSO) for 18 h and 24 h. Immunoblot analysis was subsequently performed with the indicated antibodies by following the protocol in Example 4. […]", "data": [{"smiles": "COc1ccccc1NC(=O)Nc1ccc([N+](=O)[O-])cc1O", "note": "[QE-18-WG07]", "values": [{"measurement": "degradation of endogenous SALL4B after CRBN knockdown by shRNA", "setting": "CRBN-KD SNU-398 cells, 18 h", "result": "prevented"}, {"measurement": "SALL4B degradation under MG132 or MLN4924 cotreatment", "setting": "SNU-398, SNU-182 and H661 cells", "result": "chemically rescued"}, {"measurement": "Dmax", "setting": "SNU-398 HCC cells, 24 h of treatment, immunoblot quantification", "result": 87, "unit": "%"}, {"measurement": "DC50", "setting": "SNU-398 cells, 24 h, immunoblot quantification", "result": "~0.64", "unit": "µM"}]}]}
